From PubChem BioAssay (NCI)
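Cultured in 96-well plates, cells were exposed to test compound for 48 hours across five concentrations. The concentration for 50% growth inhibition is given as GI50. TGI: total growth inhibition.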

Legend:
Assay in all cases: NCI-60 cell line screen, 48 h
[1] = system: SK-MEL-28 melanoma
[2] = system: MCF7 breast
[3] = system: EKVX NSCLC
[4] = system: SF-295 CNS
[5] = system: SF-539 CNS
[6] = system: OVCAR-4 ovarian
[7] = system: 786-0 renal
[8] = system: UACC-257 melanoma
[9] = system: SN12C renal
[10] = system: RPMI-8226 leukemia

SMILES | GI50 [1] [µM] | TGI [1] [µM] | GI50 [2] [µM] | TGI [2] [µM] | GI50 [3] [µM] | TGI [3] [µM] | GI50 [4] [µM] | TGI [4] [µM] | GI50 [5] [µM] | TGI [5] [µM] | GI50 [6] [µM] | TGI [6] [µM] | GI50 [7] [µM] | TGI [7] [µM] | GI50 [8] [µM] | TGI [8] [µM] | GI50 [9] [µM] | TGI [9] [µM] | GI50 [10] [µM] | TGI [10] [µM]
CS(=O)(=O)c1nccc(-c2c(-c3cccc(OCc4ccccc4)c3)nc3sccn23)n1 | 12.2 | > 100 | 7.31 | > 100 | 26.4 | > 100 | > 100 | > 100 | > 60.4 | > 100 | 9.97 | > 100 | 12.9 | > 100 | 10.4 | 32.5 | 26.2 | > 100 | 9.24 | > 32.3
COc1ccc(C2CC(c3ccc4ccccc4c3)=NN2/C=C2\SC(=S)N(NC(=O)Cc3ccccc3Nc3c(Cl)cccc3Cl)C2=O)cc1 (centres undefined) | 4.45 | > 50 | 0.361 | > 50.5 | 1.45 | > 61.5 | 0.724 | > 32.7 | 0.282 | 1.12 | 1.2 | > 48 | 0.508 | > 38.1 | 3.86 | > 100 | 0.647 | > 48.9 | 0.309 | 1.78
Cc1cc(C)nc(NS(=O)(=O)c2ccc(Nc3nc4nc(NCc5ccccc5)nc(-c5ccc(O)cc5)c4c(=O)[nH]3)cc2)n1 | 13.4 | > 100 | 9.58 | 56.8 | 35.1 | > 100 | 16.7 | 95 | > 100 | > 100 | 32.1 | > 100 | 66.7 | > 100 |  |  | 25.1 | > 100 | > 100 | > 100
COc1ccc(NC(=O)COc2ccccc2)c(C(N)=O)c1 | 6.13 | > 100 | 0.538 | > 100 |  |  | 0.644 | 16.5 | 0.506 | 4.01 | > 44.8 | > 100 | 2.18 | 49.4 | > 100 | > 100 | 5.53 | > 100 | 1.93 | > 55.2
CN(C)C(=O)C(NCCO)c1ccccc1 (centres undefined) |  | > 100 |  | > 100 |  | > 100 |  | > 100 |  | > 100 |  | > 100 |  | > 100 |  | > 100 |  | > 100 |  | 59.7
COc1ccc2c(c1)O/C(=C\c1ccc([N+](=O)[O-])o1)C2=O | 2.17 | 5.02 | 0.345 | 3.12 |  |  | 2.47 | 11.6 | 1.6 | 4.14 | 1.87 | 6.5 | 1.99 | 4.83 | 1.72 | 3.85 | 2.45 | > 100 | 0.367 | 2.33
NNC(=O)C(O)C(O)C(O)CO (centres undefined) |  | > 100 |  | > 100 |  | > 100 |  | > 100 |  |  |  | > 100 |  | > 100 |  | > 100 |  | > 100 |  | > 100
Nc1nc(=O)c2[nH]cnc2n1O |  | > 100 |  | > 100 |  | > 100 |  | > 100 |  | > 100 |  | > 100 |  | > 100 |  | > 100 |  | > 100 |  | > 100
CN(C)c1ccc(/C=N/NC(=O)CSc2nc3sc4c(c3c(=O)n2-c2ccccc2)CCCCC4)cc1 | 4.42 | > 100 | 4.7 | > 100 | 7.08 | > 100 | 3.39 | 20.7 | 4.52 | 25.5 | 2.56 | 6.49 | 8.26 | 39.1 | > 100 | > 100 | 4.59 | > 100 | > 100 | > 100
C/C(=N\NC(=O)c1cccc(S(=O)(=O)N2CCN(C)CC2)c1)c1cc(Cl)ccc1O | 1.36 | > 61.3 | 0.423 | > 100 | 0.354 | > 63.1 | 0.998 | 21.9 | 1.06 | 21.8 | 0.545 | > 100 | 0.992 | > 100 | 2.37 | 25.8 | 1.19 | > 100 | 1.33 | > 100
C=C(c1ccc(OC)c(/C=C/C(=O)c2cc(OC)c(OC)c(OC)c2)c1)c1cc(OC)c(OC)c(OC)c1 | 1.52 | 3.45 | 0.44 | 4.03 | 2.23 | 9.74 | 2.9 | 14.9 | 1.41 | 3.05 | 3.7 | > 100 | 1.68 | 3.7 | 1.63 | 5.11 | 1.87 | 9.55 | 0.453 | 3.06
CC/C=C\C[C@H](O)C/C=C1/C(=O)C=C[C@@H]1C/C=C\CCCC(=O)OCCS(=O)(=O)c1ccccc1 | 2.72 | 8.02 | 2.39 | 18.6 | 12.2 | 30.5 | 3.74 | 14.1 | 4.68 | 16.9 | 4.05 | 16.9 | 3.22 | 8.61 | 4.54 | 17.3 | 3.62 | 19.1 | 2.7 | 8.25
COc1ccccc1CN=C1NC(=O)/C(=C/c2ccc3ncccc3c2)S1 | > 15.3 | > 25 | 5.4 | > 25 |  |  | 5.7 | > 21 | 5.28 | > 20.3 | 8.88 | > 25 | 10.9 | > 25 | > 25 | > 25 | 7.8 | > 25 | 7.17 | > 25
Nc1c(C(=O)c2cccc(C(O)(CO)CO)c2)cnn1-c1ccc(F)cc1 | > 25 | > 25 | > 25 | > 25 |  |  | > 25 | > 25 | > 25 | > 25 | > 25 | > 25 | > 25 | > 25 | > 25 | > 25 | > 25 | > 25 | > 25 | > 25
